Consider 2 compounds from US20160326098A1, “Pharmaceutically Active Compound for Use as Anti-inflammatory Agent” (Pax Forschung GmbH, priority 2013, published 2016).

What all share (assay type): in vivo
In series [1] the test system is nitrite/nitrate (NOx). The series is described as follows: Nitrite/nitrate level in blood, rats with gastric injury without inflammation. The following applies: 1.11 mmol/kg, vs control group H, FIG. 25. The protocol:
(§1) The levels of plasma nitrite/nitrate (NOx), stable end products of NO were measured by the Griess reaction. This assay depends on the reduction of nitrate to nitrite, which is then converted into a colored azo dye compound that is detected spectrophotometrically at 540 nm.
Further experiments regarding the effect of a compound of formula (I) and a pharmaceutical composition comprising a compound of formula (I), respectively, on gastric injury without inflammation were conducted on rats. 15 animals were randomly allocated into three groups. Group H (n=5) served as sham-operated controls. Samples of all animals were drawn on day 1 of the clinical tests. On day 2 the animals of group I (n=5) were force-fed acetylsalicylic acid (ASS) (1.11 mmol/kg body weight). Group K (n=5) was force-fed 1.11 mmol/kg body weight of the compound according to the invention. Group H only received the respective solvent (25% ethanol in water). One day after the gavage, additional samples were drawn. Fluorescence confocal endomicroscopy was performed to examine the microvasculature and morphologic changes of the mucosa of the distal colon, and full-thickness tissue samples and venous blood samples were taken to determine the biochemical changes in the colon and plasma. The effects were determined by way of measurement of body weight, blood gas analysation and biopsy. […]

Series [2] deals with myeloperoxidase (MPO). The series is described as follows: Tissue myeloperoxidase activity, mice with TNBS-induced colitis. The note with it: gastric and colon tissue, 1.11 mmol/kg, one day after treatment, vs untreated colitis and ASS groups, FIGS. 13a/13b. The method, then:
(§2) Colonic inflammation was induced by intracolonic administration of TNBS (2,4,6-trinitrobenzenesulfonic acid) (40 mg/kg in 0.25 ml of 25% aqueous ethanol) through an 8-cm-long soft plastic catheter under transient diethylether anesthesia. In the sham-operated groups, only the vehicle for TNBS was administered. The animals were deprived of food, but not water, for 12 h before the enemas.
(§3) Colon biopsies kept on ice were homogenized in phosphate buffer (pH 7.4) containing 50 mM Tris-HCl (Reanal, Budapest, Hungary), 0.1 mM EDTA, 0.5 mM dithiothreitol, 1 mM phenylmethylsulfonyl fluoride, 10 μg/ml soybean trypsin inhibitor, and 10 μg/ml leupeptin (Sigma Aldrich GmbH, Munich, Germany). […] The activity of myeloperoxidase (MPO) was measured on the pellet of the homogenate.
(§4) The activity of MPO as a marker of tissue leukocyte infiltration was measured on the pellet of the homogenate. […] The reaction led to the hydrogen peroxide-dependent oxidation of tetramethylbenzidine, which could be detected spectrophotometrically at 450 nm (UV-1601 spetrophotometer; Shimadzu, Kyoto, Japan). Myeloperoxidase activities were measured at 37° C.; the reaction was stopped after 5 minutes by the addition of 0.2 ml of H2SO4 (2 M), and the resulting data were referred to the protein content. […]

For series [3], the system named is nitrite/nitrate (NOx). As to the kind of experiment: Tissue nitrite/nitrate level, mice with TNBS-induced colitis. The note with it: gastric and colon tissue, 1.11 mmol/kg, FIGS. 15a/15b. The protocol: as §2, §1
The above-described clinical studies were repeated with animals having colitis which was induced as described above. […] Two days after the enema the effects of the treatment were determined by measurement of body weight, blood gas analysis and biopsy. […] Surgery was performed to allow registration of the hemodynamic parameters at 1 h intervals for 6 h (cardiac output [CO] data were measured only at the end of the experiments). […] In addition, fluorescence confocal endomicroscopy was performed to examine the microvasculature and morphologic changes of the mucosa of the distal colon, and full-thickness tissue samples and venous blood samples were taken to determine the biochemical changes in the colon and plasma.

The subject of series [4] is High mobility group box protein 1 (HMGB-1). The series is described as follows: Plasma high-mobility group protein B1, rats with TNBS-induced colitis. The following applies: 1.11 mmol/kg, day 3, FIG. 31. The method, then: as §2
High mobility group box protein 1 (HMGB-1) measurements in plasma:
Blood samples were drawn into chilled polypropylene tubes containing EDTA (1 mg/ml) and were centrifuged at 1200 g for 10 min at 4° C. The plasma samples were then collected and stored at −70° C. until assay. Plasma concentration of HMGB-1 was measured by a commercially available HMGB-1 ELISA kit (Shino-Test Corporation, Kanagawa, Japan).
The above-described clinical studies were repeated with animals having colitis which was induced as described above. […] Two days after the enema the effects of the treatment were determined by measurement of body weight, blood gas analysis and biopsy. […] Surgery was performed to allow registration of the hemodynamic parameters at 1 h intervals for 6 h (cardiac output [CO] data were measured only at the end of the experiments). […]

Series [5] deals with myeloperoxidase (MPO). The series is described as follows: Tissue myeloperoxidase activity, rats with TNBS-induced colitis. The following applies: gastric and colon tissue, one day after 1.11 mmol/kg, vs untreated colitis and ASS groups, FIGS. 32a/32b. The protocol:
as §2, §3, §4

For the compound `CC(=O)Oc1ccccc1C(=O)O` [ASS, acetylsalicylic acid, reference compound], the “nitrite/nitrate level in the blood” value in the series with nitrite/nitrate (NOx) [1] was “increased nitrite/nitrate level”.

With `CC(=O)Oc1ccccc1C(=O)NC(CO)(CO)CO` [compound according to the invention], the myeloperoxidase enzyme activity result with myeloperoxidase (MPO) [2] and with myeloperoxidase (MPO) [5] was “decrease of activity” in each case. In addition, the nitrite/nitrate level result in the series with nitrite/nitrate (NOx) [3] was “nitrite/nitrate levels comparable to those of healthy animals”. The “concentration of the high-mobility group protein B1 in the plasma” value in series [4] is listed as “significant reduction”.
